What was measured:
HepG2 cells [1] = assay: JC-1 staining assay of mitochondrial membrane potential; assay type: cell-based, human
Procedure: Detection of mitochondrial membrane potential by JC-1 staining
1inoculate the logarithmic growth cell digestion into the six-hole plate, the next day, after the cells adhered to the wall, according to the group set up to add the corresponding drug medium, and set up a negative control group at the same time;
(2) the cell concentration was collected and adjusted to 1 × 10^6 / ml by PBS washing (centrifugation 2000rpm for 5 min);
(3) 100 μ L 10 × Incubation Buffer and 900 μ L sterilized deionized water were diluted to 1 × Incubation buffer, and then preheated to 37 ℃;
(4) 500 μ L 1 × Incubation buffer was absorbed and 1 μ L JC-1 was added to prepare JC-1 […]
(5) the cells were incubated in a incubator containing CO 2 at 37 ℃ for 15 ~ 20 min with […]
(6) the cells were collected by centrifugation at room temperature for 5 min and washed twice with 1 × Incubation Buffer.
(7) resuspension cells of 500 μ L 1 × Incubation Buffer;
(8) on the computer test. […]

LO2 cells = assay: MTT assay, toxic effect on normal liver cells LO2; assay type: cell-based; details: in vitro
Procedure: (§1) As shown in Figure 1 and Table 1, compounds 1–16 were evaluated for their inhibitory effects on the proliferation of HepG2 and LO2 cells by MTT assay. […] It provided the experimental basis for the subsequent synthesis of attenuating and improving urushiol derivatives.
(§2) Detection of cell proliferation by MTT
(§3) MTT assay was used to determine the inhibitory effect of the sample on the proliferation of HepG2 cells. The tumor cells of logarithmic growth stage were inoculated with 3.5 * 103 / well in 96 well culture plate. 0.2 ml/pore system was cultured for 72 h with different concentrations of samples. Then 20μL(final concentration 0.5 mg / mL) of MTT were added to each pore for 4 h. The supernatant was carefully adsorbed, DMSO 0.15 mL was added to each pore, and oscillatory mixing was carried out. The absorbance (A) value at 490 nm wavelength was measured by enzyme labeling instrument. The inhibition rate of cell proliferation was calculated as follows: [(A value of negative control group-A value of blank group)-(A value of experimental group A value of blank group)] / (negative pair group A-A value of blank group) × 100.Statistical method. The statistical analysis was carried out by SPSS 17.0 statistical software. The measured data were described by x ±s, and the mean of the two samples was compared with t test (P < 0. 05).
(§4) Materials and methods: Main reagents and instruments […]
(§5) Full-range rainbow […]
(§6) The HepG2 cells were cultured in a saturated humidity incubator with 90% […]
(§7) Jiangsu Kaiji Biotechnology Co., Ltd. Main reagents and consumables Cell culture bottle […]
(§8) Cell proliferation measured by MTT
(§9) 1) the cells were digested and counted, the cell suspension was prepared by 3 x 10^4 /ml, and 100 micron L cell suspension was added to each hole in the 96 hole cell culture plate.
(§10) 2) 96 hole cell culture plate was placed in 37, 5%, CO2 culture box for 24 hours.
(§11) 3) use the medium to dilute the drug to the desired working fluid concentration, add 100 micron l per hole to the corresponding drug medium, and establish a negative control group and a positive control group (paclitaxel, 20ug/ml).
(§12) 4) 96 hole cell culture plate was placed at 37 ℃ and 5% CO2 incubator for 72 hours.
(§13) 5) 96 hole board for MTT staining, lambda =490nm, OD value determination; a. 20 μL MTT (5mg/ml) per hole was added to the culture box for 4 hours. b. discarding the supernatant, adding 150 μL DMSO for each hole, and gently mixing the […]
(§14) c. lambda =490nm, ELISA od readout per hole, the inhibition rate was calculated.
(§15) 6) calculate the inhibition rate of each group.The inhibition rate (%) = (negative control group OD value of experimental group / OD) negative control group OD x 100% […]
(§16) 7 check the machine and record the red fluorescence at the excitation wavelength of 488nm.
(§17) Detection of apoptosis by Annexin-V FITC/PI double staining
(§18) (1) inoculate the logarithmic growth cells into the six-hole plate. The next day, after the cells are adhered to the wall, according to the group . The culture medium containing medicine was added and the negative control group was set up at the same time
(§19) (2) after 72 hours of treatment, the cells were digested with 0.25% trypsin (excluding […]
(§20) (3) 5 × 10 ~ 5 cells were collected by PBS washing cells twice (centrifugation 2000rpm for 5

HepG2 cells [2] = assay: MTT assay, inhibition of proliferation of HepG2 cells; assay type: cell-based, human; details: for IC50: in vitro, 72 h
Procedure: as §1, §2, §3, §4, §5, §6, §7, §8, §9, §10, §11, §12, §13, §14, §15, §16, §17, §18, §19, §20

Compound: C/C=C\C=C\C/C=C\CCCCCCCc1cccc(O)c1O[Si](CCCS)(OC)OC [Compound 1]
- UR % Gated (HepG2 cells [1]; HepG2, JC-1, 12 μM): 46.18%
- Green Fluorescence (%) (LR % gated) (HepG2 cells [1]; HepG2, JC-1, 1 μm): 16.72%
- Green Fluorescence (%) (LR % gated) (HepG2 cells [1]; HepG2, JC-1, 3 μm): 28.14%
- Green Fluorescence (%) (LR % gated) (HepG2 cells [1]; HepG2, JC-1, 12 μm): 53.82%
- IC50 (LO2 cells; Homo sapiens, L02, 72 h): 150 µM
- IC50 (LO2 cells; 72 h): 151 µM
- inhibitory activity on HepG2 cells proliferation (in words) (HepG2 cells [2]): strong
- IC50 (HepG2 cells [2]; Homo sapiens, HepG2, 72 h): 7.89 µM
- IC50 (HepG2 cells [2]): 7.88 µM

Reference: paper PMC6102549, “Synthesis and Evaluation of C15 Triene Urushiol Derivatives as Potential Anticancer Agents and HDAC2 Inhibitor” (Molecules : A Journal of Synthetic Chemistry and Natural …, 2018)
